# Where a SMILES comes first, the peptide text is derived from it.
# Key:
# [1] = system: cortical neurons; assay: Survival of wild-type cortical neurons, MTT assay; format: cell-based, mouse
# Description: Cortical neurons were isolated from p0 wild-type mice and seeded in a density of 50.000 in a 96-well plate pre-coated with poly-L and laminin and incubated at 37° C. in a 5% C02 atmosphere. At 7 days in vitro (DIV7) the neurons were treated by changing half the media with neurobasal A with B27 containing the peptides (P2, P4 or P6) to give a finale concentration of 1 uM and further incubated. The cortical neurons were treated in a likewise manner on DIV9 and DIV11. At DIV12 half the media was removed and 3-(4,5-dimethylthiazole-2-yl)-2,5-diphenyltetrazolium bromide (MTT) was added to the media to give a finale concentration of 0.5 mg/mL. MTT is reduced by mitochondrial enzymes in active cells to an insoluble product called formazan, which can be detected by colorimetry. Thus, the colour generated reflects activity and viable cells in the culture. The neurons were incubated for 4 hours with MTT and thereafter lysed in a 50% EtOH and 50% DMSO solution. To assure proper mixing of formazan, the plate was left to shake for 30 minutes before being measured at 570 nm and 650 nm. Student's t-test was used for statistical analysis.
# Further, a drug-dose response on survival for peptide P1 was assessed in a similar manner.
# [2] = system: AMPK (T172) and CREB (S133); assay: P1 activation of AMPK and CREB with or without CaMKK2-inhibitor STO-609 in cortical neurons; format: cell-based, mouse
# Description: Mouse cortical neurons were isolated from p0 wild-type mice and seeded in a density of 250,000 per well in a 12-well tray. After 7 days in vitro the neurons were either pre-treated with STO-609 (5 uM) for 1 hour or with DMSO (control). After 1 hour, the neurons were stimulated with P1 or a scrambled peptide (Scr), with or without STO-609, in neurobasal A media and incubated at 37° C. and 5% CO2 for 20 minutes. Hereafter, the neurons were lysed in lysis buffer containing DTT and cOmplete cocktail protease inhibitor. Phosphorylation of AMPK (T172) and CREB (S133) was validated by western blotting and normalized to beta-actin.
# [3] = system: primary hippocampal neurons; assay: Lysosomal acidification in wild-type hippocampal neurons, LysoSensor DND-189 live imaging; format: cell-based, mouse; settings: 1 uM
# Description: Primary hippocampal neurons were seeded in an 8-well ibidi chamber pre-coated with Poly-I and laminin. 75.000 neurons were seeded pr. well. After 5 days in vitro the neurons were stimulated for 4, 8 or 24 hours with peptide P1 at 1 uM in neurobasal A with B27. After stimulation, the medium was changed to pre-warmed (37° C.) neurobasal A containing 1 uM of LysoSensor probe DND-189 (an acidotropic probes that accumulates in acidic organelles as the result of protonation) and incubated for 30 min. at 37° C. in a 5% C02 atmosphere. Hereafter, the media was changed to pre-warmed FluoroBrite Medium and the neurons were imaged in Olympus microscopy system. Pictures were taken of the lysosomes and processed using the ScanR imaging software to give fluorescence (intensity) of each lysosomal vesicle. The summed total intensity of all lysosomes was calculated and divided by the total number of neurons imaged yielding the total intensity of lysosomes per neuron. Student's t-test was used for statistical analysis.
# [4] = system: pCREB, TFEB, LAMP1, p62/SQSTM1, PGRN, PGC1a; assay: Pathway engagement in striatum of wild-type mice after SC injection, western blotting; format: in vivo, mouse; settings: 13 mg/kg SC
# Description: Wild-type mice were injected with 13 mg/kg of P1 (SEQ ID NO: 1) subcutaneously in 4.38 mM L-His, 140 mM NaCl, 0.2% Tween-20 and 1500 IU hyaluronidase (pH 6.15). The mice were sacrificed at timepoints between 2-8 hours after injection. Striatal tissue was isolated and the tissue was lysed using a TissueLyser in RIPA lysis buffer containing cOmplete and phosSTOP. Levels of pCREB, TFEB, downstream lysosomal gene products LAMP1, p62/SQSTM1, PGRN and mitochondrial master regulator PGC1a were validated by western blotting. All proteins were normalized to beta-actin levels.
# [5] = system: R6/2 mice (mouse model of Huntington's); assay: Stereological analysis of regional brain volume in R6/2 mice; format: in vivo; settings: 13 mg/kg SC daily, 8 to 12 weeks of age
# Description: The brain was cut using a fine razor blade and one hemisphere (right) was directly put into ice-cold 4% PFA in PBS for 24 hours, and then transferred to a 30% sucrose PBS solution for 48 hours and stored at 4° C.
# The PFA fixed hemispheres were imbedded in TissueTec and sliced on a cryostat at 50 μm thickness. For stereology, every 5th section was sampled using the principle of systematic random sampling, giving a section sampling fraction (SSF)=1/5.
# The sections were mounted on chrome-gelatin-coated slides and Nissl stained with a 0.25% thionine solution (thionin, Sigma T3387). Image acquisition and analysis was performed using the newCAST system (Visiopharm, Horsholm, Denmark). This system consists of an Olympus light microscope (Olympus BX50, Olympus, Denmark) modified for stereology with a digital camera (PixeLINK PLA686C, Canada) and a motorized microscope stage (Prior H138 with controller H29, Cambridge, UK). The newCAST software was interfaced to the digital camera superimposing the counting frames on the live images.
# The volume estimation was carried out using the Cavalieri principle for quantifying the total volume of the hippocampus, striatum and mid-part of the cortex (6 slides used for this) using a 4× lens.
# [6] = system: TDP-43(ΔNLS)-YFP; assay: Clearance of cytoplasmic TDP-43 in HEK293 cells, western blotting; format: cell-based; settings: dose-range of P1, 24 hours
# Description: 100,000 HEK293T cells were seeded in a 24-well plate per well. At 60% confluency the cells were transfected with a form of TDP-43-YFP with a mutated nuclear localization signal (TDP-43(ΔNLS)-YFP) to restrict TDP-43 to the cytosol, which is the pathogenic localization in frontotemporal dementia^67. After 24 hours, the cells were treated with a dose-range of peptide P1 and further incubated for another 24 hours. The cells were subsequently lysed in lysis buffer containing DTT and cOmplete cocktail protease inhibitor. The levels of TDP-43 were validated by western blotting using an anti-GFP antibody and the levels were normalized to beta-actin.
smiles,measurement,setting,value
"CSCC[C@@H]1NC(=O)[C@H](C(C)C)NC(=O)[C@H](CC(=O)O)NC(=O)[C@H](CCC(=O)O)NC(=O)[C@H](CCC(=O)O)NC(=O)[C@H](Cc2c[nH]cn2)NC(=O)[C@H](CCC(=O)O)NC(=O)[C@H](C(C)C)NC(=O)[C@@H]2CCCN2C(=O)[C@H](CCC(=O)O)NC(=O)[C@H]([C@@H](C)O)NC1=O [Peptide P1, [MTEPVEHEEDV]] (cyclo(MTEPVEHEEDV))",survival in drug-dose response study,[1]; BDNF as positive control,increases survival
same,EC50,"[1]; drug-dose response, Example 5",2.7 µM
same,phosphorylation of AMPK (T172),"[2]; 1 uM P1, without STO-609",significantly increased phosphorylation
same,phosphorylation of CREB (S133),"[2]; 1 uM P1, without STO-609",significantly increased phosphorylation
same,P1-induced activation of AMPK,[2]; pre-treated with 5 uM STO-609 for 1 hour,loss of P1-induced activation of AMPK
same,CREB activation by P1,"[2]; pre-treated with 5 uM STO-609 for 1 hour, compared to P1-treated cells only",lowered but not totally abolished
same,lysosomal intensity (lysosomal acidification),[3]; 4 hours,lysosomal intensity was increased
same,lysosomal intensity (lysosomal acidification),[3]; 8 hours,lysosomal intensity was increased
same,lysosomal intensity (lysosomal acidification),[3]; 24 hours,no difference
same,pCREB in striatum,[4]; after 2 hours,significantly activates CREB
same,pCREB in striatum,[4]; at 4 hours,no significant effect
same,PGC1a in striatum,[4]; at 6 hours,significantly increased
same,PGRN in striatum,[4]; at 6 hours,significantly increased
same,p62/SQSTM1 levels in striatum (autophagic flux),[4]; at 8 hours following injection,significantly lowered
same,LAMP1 in striatum,[4]; between 2-4 hours,significantly increased
same,TFEB in striatum,[4]; between 2-4 hours,significantly increased
same,cortical volume,[5],tendency of increasing
same,hippocampal volume,[5],tendency of increasing
same,cytoplasmic TDP-43 levels,[6],decreased the pathogenic cytoplasmic form of TDP-43
